Results reported in patent US20230089867A1, “CYCLIC PENTAMER COMPOUNDS AS PROPROTEIN CONVERTASE SUBTILISIN/KEXIN TYPE 9 (PCSK9) INHIBITORS FOR THE TREATMENT OF METABOLIC DISORDER” (Novartis AG, priority 2018, published 2023).

Biological target: human PCSK9 (Homo sapiens, UniProt Q8NBP7)
Test: PCSK9 ligand binding TR-FRET assay (interference with binding of human PCSK9 to human LDLR)
Conditions: for Max % inhibition: PCSK9 FRET assay, efficacy (Amax), 100% = 1 uM unlabeled human PCSK9, 0% = DMSO; for IC50: TR-FRET, human PCSK9 Alexa Fluor 647 / human LDLR extracellular domain-Europium Kryptate, read-out: PCSK9 FRET Assay IC50
Protocol: The PCSK9 binding of the compounds of the disclosure were measured using a time resolved fluorescence resonance energy transfer (TR-FRET) assay. This time resolved fluorescence resonance energy transfer (TR-FRET) assay measures the ability of a compound of the present disclosure to interfere with the binding of human PCSK9 to human LDLR, providing measures of both potency (IC50) and efficacy (Amax).
These solutions were pipetted into columns 1 and 11 of the compound plate. Threefold serial dilutions were generated in columns 2-10 and 12-20 of the compound plate by transferring 10 uL into 20 uL of DMSO. Columns 21 and 22 of the compound plate were negative controls containing DMSO alone.
An intermediate plate was generated in a Greiner V bottom plate by transferring 8 uL from each well of the master plate into a corresponding well containing 92 uL of assay buffer and mixing thoroughly.
A Proxi plate-low volume assay plate was used for the assay. […] For the positive control wells in columns 23 and 24 of the plate, 5 uL of unlabeled human PCSK9 was added at 4 uM in assay buffer containing 8% DMSO. Following a 30 minute incubation, 5 uL of 4 nM Human LDLR extracellular domain-Europium Kryptate was added and the mixture was incubated for an additional 2 hours.
The FRET ratio (FRET/Europium) was used for calculations.
Data is expressed as percent inhibition: (value−0%)/(100%−0%).

Chain of human PCSK9 (Q8NBP7 153-692): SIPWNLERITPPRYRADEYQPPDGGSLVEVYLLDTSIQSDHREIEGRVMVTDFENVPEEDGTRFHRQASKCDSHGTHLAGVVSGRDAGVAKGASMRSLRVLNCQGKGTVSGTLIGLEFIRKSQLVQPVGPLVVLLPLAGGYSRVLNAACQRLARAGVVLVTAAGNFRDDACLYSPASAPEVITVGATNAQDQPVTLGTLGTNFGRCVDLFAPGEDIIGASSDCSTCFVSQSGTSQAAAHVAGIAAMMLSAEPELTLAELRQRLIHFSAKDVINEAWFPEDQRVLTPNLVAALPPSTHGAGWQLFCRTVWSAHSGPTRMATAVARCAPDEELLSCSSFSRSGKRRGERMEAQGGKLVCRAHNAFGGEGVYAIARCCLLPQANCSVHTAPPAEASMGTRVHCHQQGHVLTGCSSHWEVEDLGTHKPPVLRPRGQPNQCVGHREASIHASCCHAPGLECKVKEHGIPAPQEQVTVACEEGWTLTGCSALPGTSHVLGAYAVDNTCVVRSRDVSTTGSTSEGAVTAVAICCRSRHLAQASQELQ
Chain of human PCSK9 (Q8NBP7 31-152 partner limits assumed): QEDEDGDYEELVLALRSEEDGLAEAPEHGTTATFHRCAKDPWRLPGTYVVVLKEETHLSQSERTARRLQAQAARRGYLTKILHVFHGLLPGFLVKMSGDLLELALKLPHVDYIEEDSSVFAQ

SMILES	Max % inhibition [%]	IC50 [nM]
COC[C@@H]1NC(=O)[C@@H](COC)N(Cc2ccc(Cl)cc2Oc2ccc(-c3cnc(CN(C)C)n3C)cc2)C(=O)C[C@@H](Cc2ccccc2)C(=O)N(C)[C@H]2CCCC[C@@H]2NC(=O)C[C@H](Cc2ccc(Cl)cc2)N(C)C1=O [Compound 8, (4S,7S,10R,14R,16aS,20aS)-14-benzyl-11-(4-chloro-2-(4-(2-((dimethylamino)methyl)-1-methyl-1H-imidazol-5-yl)phenoxy)benzyl)-4-(4-chlorobenzyl)-7,10-bis(methoxymethyl)-5,16-dimethylhexadecahydrobenzo[l][1,4,7,11,14]pentaazacyclooctadecine-2,6,9,12,15(3H)-pentaone]	101.12	8.9
COC[C@@H]1NC(=O)[C@H](C)N(Cc2ccccc2Oc2ccc(-c3cnc(CN(C)C)n3C)cc2)C(=O)C[C@@H](Cc2ccccc2)C(=O)N(C)[C@@H](C)CNC(=O)C[C@H](Cc2ccc(Cl)cc2)N(C)C1=O [Compound 9, (2S,5S,8S,13S,16R)-16-benzyl-8-(4-chlorobenzyl)-1-(2-(4-(2-((dimethylamino)methyl)-1-methyl-1H-imidazol-5-yl)phenoxy)benzyl)-5-(methoxymethyl)-2,7,13,14-tetramethyl-1,4,7,11,14-pentaazacyclooctadecane-3,6,10,15,18-pentaone]	98.16	3.1
COC[C@@H]1NC(=O)[C@H](CCC(=O)OC(C)(C)C)N(Cc2ccc(Cl)cc2Oc2ccc(-c3cnc(CN(C)C)n3C)cc2)C(=O)C[C@@H](Cc2ccccc2)C(=O)N(C)[C@@H](C)CNC(=O)C[C@H](Cc2ccc(Cl)cc2)N(C)C1=O [Compound 10, tert-butyl 3-((2S,5S,8S,13S,16R)-16-benzyl-1-(4-chloro-2-(4-(2-((dimethylamino)methyl)-1-methyl-1H-imidazol-5-yl)phenoxy)benzyl)-8-(4-chlorobenzyl)-5-(methoxymethyl)-7,13,14-trimethyl-3,6,10,15,18-pentaoxo-1,4,7,11,14-pentaazacyclooctadecan-2-yl)propanoate]	101.88	4.3
COC[C@@H]1NC(=O)[C@@H](C)N(Cc2ccc(Cl)cc2Oc2ccc(-c3cnc(CN(C)C)n3C)cc2)C(=O)C[C@@H](Cc2ccccc2)C(=O)N(C)[C@@H](C)CNC(=O)C[C@H](Cc2ccc(Cl)cc2)N(C)C1=O [Compound 12, (2R,5S,8S,13S,16R)-16-benzyl-1-(4-chloro-2-(4-(2-((dimethylamino)methyl)-1-methyl-1H-imidazol-5-yl)phenoxy)benzyl)-8-(4-chlorobenzyl)-5-(methoxymethyl)-2,7,13,14-tetramethyl-1,4,7,11,14-pentaazacyclooctadecane-3,6,10,15,18-pentaone]	98.09	74.1
COC[C@H]1C(=O)N(C)[C@@H](Cc2ccc(Cl)cc2)CC(=O)NC[C@H](C)N(C)C(=O)[C@H](Cc2ccccc2)CC(=O)N(Cc2ccc(Cl)cc2Oc2ccc(-c3cnc(CN(C)C)n3C)cc2)[C@H]2CC(=O)N1C2=O [Compound 13, (2S,5S,10S,13R,17S)-13-benzyl-16-(4-chloro-2-(4-(2-((dimethylamino)methyl)-1-methyl-1H-imidazol-5-yl)phenoxy)benzyl)-5-(4-chlorobenzyl)-2-(methoxymethyl)-4,10,11-trimethyl-1,4,8,11,16-pentaazabicyclo[15.2.1]icosane-3,7,12,15,19,20-hexaone]	101.32	106
COC[C@@H]1NC(=O)[C@H](C)N(Cc2ccc(Cl)cc2Oc2ccc(-c3cnc(CN4CCCC4)n3C)cc2)C(=O)C[C@@H](Cc2ccccc2)C(=O)N(C)[C@@H]2CCOC[C@H]2NC(=O)C[C@H](Cc2ccc(Cl)cc2)N(C)C1=O [Compound 14, (4S,7S,10S,14R,16aR,20aS)-14-benzyl-11-(4-chloro-2-(4-(1-methyl-2-(pyrrolidin-1-ylmethyl)-1H-imidazol-5-yl)phenoxy)benzyl)-4-(4-chlorobenzyl)-7-(methoxymethyl)-5,10,16-trimethyltetradecahydro-1H-pyrano[3,4-l][1,4,7,11,14]pentaazacyclooctadecine-2,6,9,12,15(3H)-pentaone]	93.84	307
COC[C@@H]1NC(=O)[C@H](CN2CCC2)N(Cc2ccc(Cl)cc2Oc2ccc(-c3cnc(CN(C)C)n3C)cc2)C(=O)C[C@@H](Cc2ccccc2)C(=O)N(C)[C@@H](C)CNC(=O)C[C@H](Cc2ccc(Cl)cc2)N(C)C1=O [Compound 17, (2S,5S,8S,13S,16R)-2-(azetidin-1-ylmethyl)-16-benzyl-1-(4-chloro-2-(4-(2-((dimethylamino)methyl)-1-methyl-1H-imidazol-5-yl)phenoxy)benzyl)-8-(4-chlorobenzyl)-5-(methoxymethyl)-7,13,14-trimethyl-1,4,7,11,14-pentaazacyclooctadecane-3,6,10,15,18-pentaone]	81.08	61.2

Stronger by IC50, values ahead:

Max % inhibition [%]	IC50 [nM]	SMILES
105.07	2.6	COC[C@@H]1NC(=O)[C@H](CO)N(Cc2ccc(Cl)cc2Oc2ccc(-c3cnc(CN(C)C)n3C)cc2)C(=O)C[C@@H](Cc2ccccc2)C(=O)N(C)[C@@H](C)CNC(=O)C[C@H](Cc2ccc(Cl)cc2)N(C)C1=O [Compound 11, (2S,5S,8S,13S,16R)-16-benzyl-1-(4-chloro-2-(4-(2-((dimethylamino)methyl)-1-methyl-1H-imidazol-5-yl)phenoxy)benzyl)-8-(4-chlorobenzyl)-2-(hydroxymethyl)-5-(methoxymethyl)-7,13,14-trimethyl-1,4,7,11,14-pentaazacyclooctadecane-3,6,10,15,18-pentaone]
92.71	1.7	COC[C@@H]1NC(=O)[C@H](C)N(Cc2ccc(Cl)cc2Oc2ccc(-c3cnc(CN4CCC4)n3C)cc2)C(=O)C[C@@H](Cc2ccccc2)C(=O)N(C)[C@H]2CCCC[C@@H]2NC(=O)C[C@H](Cc2ccc(Cl)cc2)N(C)C1=O [Compound 16, (4S,7S,10S,14R,16aS,20aS)-11-(2-(4-(2-(azetidin-1-ylmethyl)-1-methyl-1H-imidazol-5-yl)phenoxy)-4-chlorobenzyl)-14-benzyl-4-(4-chlorobenzyl)-7-(methoxymethyl)-5,10,16-trimethylhexadecahydrobenzo[l][1,4,7,11,14]pentaazacyclooctadecine-2,6,9,12,15(3H)-pentaone]
86.12	1.1	COC[C@@H]1NC(=O)[C@H](C)N(Cc2ccc(Cl)cc2Oc2ccc(-c3cnc(CN(C)C)n3C)cc2)C(=O)C[C@@H](Cc2ccon2)C(=O)N(C)[C@H]2CCCC[C@@H]2NC(=O)C[C@H](Cc2ccc(Cl)cc2)N(C)C1=O [Compound 18, (4S,7S,10S,14R,16aS,20aS)-11-(4-chloro-2-(4-(2-((dimethylamino)methyl)-1-methyl-1H-imidazol-5-yl)phenoxy)benzyl)-4-(4-chlorobenzyl)-14-(isoxazol-3-ylmethyl)-7-(methoxymethyl)-5,10,16-trimethylhexadecahydrobenzo[l][1,4,7,11,14]pentaazacyclooctadecine-2,6,9,12,15(3H)-pentaone]
106.65	1.5	COC[C@@H]1NC(=O)[C@H](C)N(Cc2ccc(Cl)cc2Oc2ccc(-n3cnc(CN4CCCC4)c3C)cc2)C(=O)C[C@@H](Cc2ccccc2)C(=O)N(C)[C@H]2CCCC[C@@H]2NC(=O)C[C@H](Cc2ccc(Cl)cc2)N(C)C1=O [Compound 19, (4S,7S,10S,14R,16aS,20aS)-14-benzyl-11-(4-chloro-2-(4-(5-methyl-4-(pyrrolidin-1-ylmethyl)-1H-imidazol-1-yl)phenoxy)benzyl)-4-(4-chlorobenzyl)-7-(methoxymethyl)-5,10,16-trimethylhexadecahydrobenzo[l][1,4,7,11,14]pentaazacyclooctadecine-2,6,9,12,15(3H)-pentaone]
98.33	1.2	COC[C@@H]1NC(=O)[C@H](CC(=O)N2CCOCC2)N(Cc2ccc(Cl)cc2Oc2ccc(-c3cnc(CN(C)C)n3C)cc2)C(=O)C[C@@H](Cc2ccccc2)C(=O)N(C)[C@H]2CCCC[C@@H]2NC(=O)C[C@H](Cc2ccc(Cl)cc2)N(C)C1=O [Compound 20, (4S,7S,10S,14R,16aS,20aS)-14-benzyl-11-(4-chloro-2-(4-(2-((dimethylamino)methyl)-1-methyl-1H-imidazol-5-yl)phenoxy)benzyl)-4-(4-chlorobenzyl)-7-(methoxymethyl)-5,16-dimethyl-10-(2-morpholino-2-oxoethyl)hexadecahydrobenzo[l][1,4,7,11,14]pentaazacyclooctadecine-2,6,9,12,15(3H)-pentaone]
66.09	2.4	CC(O)c1ncc(-c2ccc(Oc3cc(Cl)ccc3CN3C(=O)C[C@@H](Cc4ccccc4)C(=O)N(C)[C@@H](C)CNC(=O)C[C@H](Cc4ccc(Cl)cc4)N(C)C(=O)[C@H](CO)NC(=O)[C@@H]3C)cc2)n1C (stereo partly drawn) [Compound 21, (2S,5S,8S,13S,16R)-16-benzyl-1-(4-chloro-2-(4-(2-(1-hydroxyethyl)-1-methyl-1H-imidazol-5-yl)phenoxy)benzyl)-8-(4-chlorobenzyl)-5-(hydroxymethyl)-2,7,13,14-tetramethyl-1,4,7,11,14-pentaazacyclooctadecane-3,6,10,15,18-pentaone]
